Assay results reported in ChEMBL document CHEMBL1129080, “Synthesis, physicochemical properties, and biological evaluation of hydroxypyranones and hydroxypyridinones: novel bidentate ligands for cell-labeling” (J Med Chem, 1996).

Assay: Compound was tested for their chelating potential (free ligand) determined by distribution coefficient method.
Format: ADME
Details: octanol/water

Structure (SMILES)	mean log D
CCCCCn1ccc(=O)c(O)c1C	1.24
CCCCCCn1ccc(=O)c(O)c1C	1.9

Same assay, conditions: octanol/water; read-out: mean log D

Structure (SMILES)	logD
Cc1cc(=O)c(O)co1	-0.59
CCOCc1cc(=O)c(O)co1	-0.38
CCCCc1oc(C)cc(=O)c1O	1.92
COCc1cc(=O)c(O)co1	-0.62
NCCn1ccc(=O)c(O)c1	-0.66
Cc1cc(=O)c(O)c(C)o1	0.44
CCCc1oc(C)cc(=O)c1O	1.4
CCn1cccc(O)c1=O	0.2
CCc1oc(C)cc(=O)c1O	1.07
CCCCOCc1cc(=O)c(O)co1	0.78
CCCOCc1cc(=O)c(O)co1	0.3
CCCCn1cccc(O)c1=O	1.18
CCCn1cccc(O)c1=O	0.69
Cn1cccc(O)c1=O	-0.28
CCCCn1ccc(=O)c(O)c1C	0.71
O=c1ccocc1O	-0.92
CCc1occc(=O)c1O [E637]	0.63
Cc1occc(=O)c1O [MALTOL]	0.05
Oc1cccc2cccnc12 [OXYQUINOLINE]	1.87
O=c1cccccc1O [TROPOLONE]	-0.14
